# Source: ChEMBL document CHEMBL1151816, “Cytotoxic spirostane-type saponins from the roots of Chlorophytum borivilianum” (J Nat Prod, 2009)
# The source made the active and inactive calls. No cut-off for these calls is given here.
# Assays:
# Type in all cases: functional, cell-based
# HCT-116 [1] = experiment: Cytotoxicity against human HCT116 cells after 4 days by MTT assay; conditions: HCT-116, 96 h
# HCT-116 [2] = experiment: Cytotoxicity against human HCT116 cells at 0.38 uM after 4 days by MTT assay
# HT-29 = experiment: Cytotoxicity against human HT-29 cells at 2.6 uM after 4 days by MTT assay
Structure (SMILES),IC50 (HCT-116 [1]) [nM],Activity (HCT-116 [2]),Activity (HT-29)
CC(=O)O[C@H]1C(=O)[C@@]2(C)[C@H]([C@H](OC(=O)c3ccccc3)[C@]3(O)C[C@H](OC(=O)[C@H](O)[C@@H](NC(=O)c4ccccc4)c4ccccc4)C(C)=C1C3(C)C)[C@]1(OC(C)=O)CO[C@@H]1C[C@@H]2O [PACLITAXEL],1.1,,
C=C1CC[C@@]2(OC1)O[C@H]1C[C@H]3[C@@H]4CC[C@H]5C[C@@H](O[C@@H]6O[C@H](CO)[C@H](O[C@@H]7O[C@H](CO)[C@@H](O)[C@H](O[C@@H]8OC[C@@H](O)[C@H](O)[C@H]8O)[C@H]7O[C@@H]7O[C@H](CO)[C@@H](O)[C@H](O)[C@H]7O)[C@H](O)[C@H]6O)[C@H](O)C[C@]5(C)[C@H]4CC[C@]3(C)[C@H]1[C@@H]2C,,Active,Active
